Measurements as given in patent US11953501B2, “Compositions and methods to detect gastrointestinal disease” (The Board of Supervisors of Louisiana State University and …, priority 2016, dated 2024).
Like-named read-outs stand apart in the source and are kept apart here.

Target: T1, intestinal alkaline phosphatase (iAP) (Homo sapiens, UniProt P09923)
T1 construct: The supernatant contained proteins secreted in the gut lumen, on which our analysis is focused; from tissue; host or cells: stool supernatant (200 mg/mL slurry in water, centrifuged) from human preterm infants
T1 sequence (P09923 20-503 limits assumed): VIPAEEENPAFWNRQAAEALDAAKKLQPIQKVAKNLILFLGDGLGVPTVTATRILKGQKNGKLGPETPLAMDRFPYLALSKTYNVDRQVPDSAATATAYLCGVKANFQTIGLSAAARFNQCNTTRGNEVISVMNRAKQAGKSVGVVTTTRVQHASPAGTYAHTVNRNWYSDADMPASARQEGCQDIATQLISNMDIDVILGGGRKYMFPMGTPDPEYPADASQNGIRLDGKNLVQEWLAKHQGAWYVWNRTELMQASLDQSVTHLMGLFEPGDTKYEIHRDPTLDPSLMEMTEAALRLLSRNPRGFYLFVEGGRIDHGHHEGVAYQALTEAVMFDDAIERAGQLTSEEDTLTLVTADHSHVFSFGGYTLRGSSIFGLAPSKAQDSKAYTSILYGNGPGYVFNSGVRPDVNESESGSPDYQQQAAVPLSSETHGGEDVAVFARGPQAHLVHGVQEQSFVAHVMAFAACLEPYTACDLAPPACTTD
Test: Fecal iAP catalytic activity, 4-methylumbelliferyl phosphate (MUP) fluorometric assay with and without L-phenylalanine
Type: biochemical
Conditions: 10 mM L-Phe, spread is SD, read-out: inhibition of AP activity by L-Phe
Description: Fecal iAP catalytic activity: Alkaline phosphatase activity was measured with use of 4-methylumbelliferyl phosphate (MUP) as a fluorescent substrate (Abcam, ab83371) in the presence and absence of L-phenylalanine, an inhibitor of iAP. Relative fluorescence units (RFUs) at 360/440 nm were measured using a Spectra Max M2e spectrophotometer (Molecular Devices, Sunnyvale, CA). Ninety-six-well black optical bottom plates were used. Standards and negative controls were prepared for each plate run. Total AP activity was determined as: AP activity (mU/mL)=(B×dilution factor)/(T×V), in which B is nmol of product; V is volume of sample added to the well; T is reaction time; and U is the amount of enzyme causing hydrolysis of 1 μmol of MUP per minute at pH 10.0 and 25° C. […]
Fecal iAP Activity—Alkaline phosphatase activity was ascertained with the use of 4-methylumbelliferyl phosphate as a fluorescent substrate ab83371 (Abeam). […] Relative fluorescence units (RFUs) at 360/440 nm wavelengths were measured using a Spectra Max M2e spectrophotometer (Molecular Devices, Sunnyvale, CA). […] Reaction wells for samples, standards and negative background controls were prepared each time the assay was performed and total alkaline phosphatase activity was determined using: ALP activity (mU/ml)=(B/T)/V x dilution factor […]

N[C@@H](Cc1ccccc1)C(=O)O [L-Phe, L-phenylalanine] gave an inhibition at 10000 µM (stool samples from NEC patients) of 90% and an inhibition at 10000 µM (stool samples from control patients) of 91%.
